# Laboratory results reported in ChEMBL document CHEMBL1201862, “PubChem BioAssay data set” (2004).
# The source made the active and inactive calls.
# What was measured:
# [1] = target: Intestinal-type alkaline phosphatase (Homo sapiens, UniProt P09923); assay: inhibition of human intestinal alkaline phosphatase – biochemical, dose response (AID 488876); type: functional
# [2] = target: T1, Tyrosyl-DNA phosphodiesterase 2 (Homo sapiens, UniProt O95551); assay: human TDP2 enzyme inhibitors, dose response, biochemical, epi absorbance, IC50 (AID 743297)
# T1 sequence (O95551 whole entry): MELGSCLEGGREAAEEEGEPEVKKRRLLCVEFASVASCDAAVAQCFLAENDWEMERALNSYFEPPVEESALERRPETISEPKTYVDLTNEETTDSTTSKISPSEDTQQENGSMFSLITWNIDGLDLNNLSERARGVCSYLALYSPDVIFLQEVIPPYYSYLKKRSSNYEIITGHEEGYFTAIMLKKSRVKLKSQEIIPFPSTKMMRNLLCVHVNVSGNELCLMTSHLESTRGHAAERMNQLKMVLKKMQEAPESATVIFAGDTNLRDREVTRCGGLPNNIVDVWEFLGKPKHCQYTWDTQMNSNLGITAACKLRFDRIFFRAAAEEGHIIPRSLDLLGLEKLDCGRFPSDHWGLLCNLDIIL
# [3] = target: T2, Cysteine protease ATG4B (Homo sapiens, UniProt Q9Y4P1); type: functional;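 also: Fluorescence-based dose-response confirmation assay measuring inhibition of ATG4B activity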
# T2 sequence (Q9Y4P1 whole entry): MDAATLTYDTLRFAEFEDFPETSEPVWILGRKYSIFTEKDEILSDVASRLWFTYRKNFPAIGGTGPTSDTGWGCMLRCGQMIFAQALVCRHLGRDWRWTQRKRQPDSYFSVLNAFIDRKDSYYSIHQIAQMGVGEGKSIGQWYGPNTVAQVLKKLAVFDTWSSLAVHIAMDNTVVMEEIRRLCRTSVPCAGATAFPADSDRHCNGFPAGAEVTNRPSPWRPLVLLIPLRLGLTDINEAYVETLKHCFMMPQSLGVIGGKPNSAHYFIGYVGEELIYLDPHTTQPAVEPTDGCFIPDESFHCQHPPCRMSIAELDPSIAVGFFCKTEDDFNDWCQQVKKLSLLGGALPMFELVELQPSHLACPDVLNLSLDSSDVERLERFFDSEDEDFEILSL
# [4] = target: 26S proteasome non-ATPase regulatory subunit 14 (Homo sapiens, UniProt O00487); assay: inhibition of proteasome subunit RPN11 – biochemical, fluorescence polarization, uHTS hits, confirmation (AID 602368); type: functional
# Chain of 26S proteasome non-ATPase regulatory subunit 14 (O00487 whole entry): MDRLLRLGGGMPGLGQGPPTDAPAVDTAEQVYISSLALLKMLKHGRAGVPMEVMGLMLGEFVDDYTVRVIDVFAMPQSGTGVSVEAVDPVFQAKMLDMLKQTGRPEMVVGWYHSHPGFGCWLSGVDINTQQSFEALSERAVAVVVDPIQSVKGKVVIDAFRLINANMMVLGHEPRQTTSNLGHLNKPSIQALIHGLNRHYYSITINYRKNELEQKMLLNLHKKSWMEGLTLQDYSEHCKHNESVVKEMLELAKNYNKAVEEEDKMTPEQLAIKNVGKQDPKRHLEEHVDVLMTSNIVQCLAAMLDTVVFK
# [5] = target: Keap1/Nrf2 (Homo sapiens, UniProt Q14145); assay: Keap1-Nrf2 protein-protein interaction inhibitors, dose response, biochemical, fluorescence polarization, cherry-picked samples (AID 588683)
# Chain of Keap1/Nrf2 (Q16236 whole entry): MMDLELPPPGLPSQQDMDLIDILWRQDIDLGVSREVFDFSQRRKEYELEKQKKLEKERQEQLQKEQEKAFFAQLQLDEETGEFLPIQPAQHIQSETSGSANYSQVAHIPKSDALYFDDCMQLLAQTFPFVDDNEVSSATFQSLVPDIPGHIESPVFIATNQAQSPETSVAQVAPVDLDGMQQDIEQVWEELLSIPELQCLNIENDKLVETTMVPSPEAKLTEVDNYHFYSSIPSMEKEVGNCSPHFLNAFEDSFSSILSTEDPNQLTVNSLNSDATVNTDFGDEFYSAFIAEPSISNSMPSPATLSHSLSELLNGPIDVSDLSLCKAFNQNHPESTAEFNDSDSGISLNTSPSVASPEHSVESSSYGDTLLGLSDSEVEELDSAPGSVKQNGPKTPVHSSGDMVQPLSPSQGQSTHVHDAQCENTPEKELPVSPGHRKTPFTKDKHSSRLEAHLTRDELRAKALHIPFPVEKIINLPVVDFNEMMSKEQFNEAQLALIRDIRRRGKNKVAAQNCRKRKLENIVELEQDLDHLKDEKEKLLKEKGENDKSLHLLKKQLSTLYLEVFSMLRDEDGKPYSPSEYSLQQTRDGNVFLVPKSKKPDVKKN
# Chain of Keap1/Nrf2 (Q14145 whole entry): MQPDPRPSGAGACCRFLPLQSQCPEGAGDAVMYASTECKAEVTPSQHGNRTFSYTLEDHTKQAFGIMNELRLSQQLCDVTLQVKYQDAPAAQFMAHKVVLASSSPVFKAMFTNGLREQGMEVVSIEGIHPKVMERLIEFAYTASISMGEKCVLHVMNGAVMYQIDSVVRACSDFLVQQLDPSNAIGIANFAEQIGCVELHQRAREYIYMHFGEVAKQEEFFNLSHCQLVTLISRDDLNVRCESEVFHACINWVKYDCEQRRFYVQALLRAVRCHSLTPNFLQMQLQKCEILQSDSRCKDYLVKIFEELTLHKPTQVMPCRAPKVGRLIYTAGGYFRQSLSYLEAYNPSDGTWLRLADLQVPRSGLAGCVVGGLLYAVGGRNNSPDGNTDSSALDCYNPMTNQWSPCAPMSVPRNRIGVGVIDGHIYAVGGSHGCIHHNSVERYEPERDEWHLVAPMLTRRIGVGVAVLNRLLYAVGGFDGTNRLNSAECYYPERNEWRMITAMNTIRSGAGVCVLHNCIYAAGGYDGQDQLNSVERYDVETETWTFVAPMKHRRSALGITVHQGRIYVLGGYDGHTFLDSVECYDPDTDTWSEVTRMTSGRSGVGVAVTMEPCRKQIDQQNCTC
# [6] = target: T3, SUMO-activating enzyme (Homo sapiens, UniProt Q9UBT2); assay: SUMOylation inhibitor hit validation, confirmation, SUMOylation inhibitor project, biochemical, AlphaScreen (AID 2018); type: functional
# T3 sequence (Q9UBE0 whole entry): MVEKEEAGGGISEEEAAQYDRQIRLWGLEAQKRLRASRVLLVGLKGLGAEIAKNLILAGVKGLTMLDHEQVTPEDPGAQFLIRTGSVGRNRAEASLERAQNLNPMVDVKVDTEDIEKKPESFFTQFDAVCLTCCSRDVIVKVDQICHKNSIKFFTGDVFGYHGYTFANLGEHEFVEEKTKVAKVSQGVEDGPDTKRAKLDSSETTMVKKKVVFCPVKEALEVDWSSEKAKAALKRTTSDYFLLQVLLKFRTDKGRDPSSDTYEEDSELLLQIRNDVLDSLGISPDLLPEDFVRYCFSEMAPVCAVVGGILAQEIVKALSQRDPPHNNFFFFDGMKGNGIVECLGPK
# T3 sequence (Q9UBT2 whole entry): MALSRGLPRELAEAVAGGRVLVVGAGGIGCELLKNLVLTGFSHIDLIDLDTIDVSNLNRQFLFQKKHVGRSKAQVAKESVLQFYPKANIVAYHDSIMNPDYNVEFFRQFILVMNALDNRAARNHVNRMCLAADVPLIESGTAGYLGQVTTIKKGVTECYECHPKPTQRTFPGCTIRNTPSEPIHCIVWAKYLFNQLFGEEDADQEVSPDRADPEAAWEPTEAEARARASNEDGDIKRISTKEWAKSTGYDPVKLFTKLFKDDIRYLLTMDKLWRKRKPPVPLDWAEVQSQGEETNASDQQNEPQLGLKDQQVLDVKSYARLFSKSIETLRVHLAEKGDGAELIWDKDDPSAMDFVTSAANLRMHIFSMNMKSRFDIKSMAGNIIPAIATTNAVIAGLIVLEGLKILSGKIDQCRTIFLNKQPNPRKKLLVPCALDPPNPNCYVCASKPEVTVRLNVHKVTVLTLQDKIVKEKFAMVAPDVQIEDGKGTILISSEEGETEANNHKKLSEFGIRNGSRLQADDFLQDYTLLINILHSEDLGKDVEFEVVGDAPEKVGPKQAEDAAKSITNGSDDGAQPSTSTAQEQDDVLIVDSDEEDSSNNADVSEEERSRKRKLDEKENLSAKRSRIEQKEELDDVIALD
# [7] = target: T4, Alkaline phosphatase, tissue-nonspecific isozyme (Homo sapiens, UniProt P05186); assay: TNAP enzyme inhibition by screening hits, dose response, selectivity assay for mouse IAP inhibitor project, biochemical, human TNAP, uHTS hits (AID 488906); type: functional
# T4 sequence (P05186 whole entry): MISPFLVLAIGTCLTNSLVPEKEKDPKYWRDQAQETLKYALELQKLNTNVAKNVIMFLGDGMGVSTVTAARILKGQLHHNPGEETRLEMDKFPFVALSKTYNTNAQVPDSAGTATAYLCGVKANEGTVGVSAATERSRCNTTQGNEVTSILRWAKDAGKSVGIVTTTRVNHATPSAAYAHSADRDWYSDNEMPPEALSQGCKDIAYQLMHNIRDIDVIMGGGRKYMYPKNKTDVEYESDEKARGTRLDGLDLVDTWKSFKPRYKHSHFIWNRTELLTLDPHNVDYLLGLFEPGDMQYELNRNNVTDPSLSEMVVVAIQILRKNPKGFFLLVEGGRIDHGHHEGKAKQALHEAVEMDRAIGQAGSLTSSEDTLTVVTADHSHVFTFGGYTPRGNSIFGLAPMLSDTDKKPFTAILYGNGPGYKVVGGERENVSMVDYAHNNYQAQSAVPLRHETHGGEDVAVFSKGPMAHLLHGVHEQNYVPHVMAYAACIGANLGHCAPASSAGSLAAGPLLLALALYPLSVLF
# [8] = target: T5, Histone-lysine N-methyltransferase NSD2 (Homo sapiens, UniProt O96028); type: biochemical
# T5 sequence (O96028 whole entry): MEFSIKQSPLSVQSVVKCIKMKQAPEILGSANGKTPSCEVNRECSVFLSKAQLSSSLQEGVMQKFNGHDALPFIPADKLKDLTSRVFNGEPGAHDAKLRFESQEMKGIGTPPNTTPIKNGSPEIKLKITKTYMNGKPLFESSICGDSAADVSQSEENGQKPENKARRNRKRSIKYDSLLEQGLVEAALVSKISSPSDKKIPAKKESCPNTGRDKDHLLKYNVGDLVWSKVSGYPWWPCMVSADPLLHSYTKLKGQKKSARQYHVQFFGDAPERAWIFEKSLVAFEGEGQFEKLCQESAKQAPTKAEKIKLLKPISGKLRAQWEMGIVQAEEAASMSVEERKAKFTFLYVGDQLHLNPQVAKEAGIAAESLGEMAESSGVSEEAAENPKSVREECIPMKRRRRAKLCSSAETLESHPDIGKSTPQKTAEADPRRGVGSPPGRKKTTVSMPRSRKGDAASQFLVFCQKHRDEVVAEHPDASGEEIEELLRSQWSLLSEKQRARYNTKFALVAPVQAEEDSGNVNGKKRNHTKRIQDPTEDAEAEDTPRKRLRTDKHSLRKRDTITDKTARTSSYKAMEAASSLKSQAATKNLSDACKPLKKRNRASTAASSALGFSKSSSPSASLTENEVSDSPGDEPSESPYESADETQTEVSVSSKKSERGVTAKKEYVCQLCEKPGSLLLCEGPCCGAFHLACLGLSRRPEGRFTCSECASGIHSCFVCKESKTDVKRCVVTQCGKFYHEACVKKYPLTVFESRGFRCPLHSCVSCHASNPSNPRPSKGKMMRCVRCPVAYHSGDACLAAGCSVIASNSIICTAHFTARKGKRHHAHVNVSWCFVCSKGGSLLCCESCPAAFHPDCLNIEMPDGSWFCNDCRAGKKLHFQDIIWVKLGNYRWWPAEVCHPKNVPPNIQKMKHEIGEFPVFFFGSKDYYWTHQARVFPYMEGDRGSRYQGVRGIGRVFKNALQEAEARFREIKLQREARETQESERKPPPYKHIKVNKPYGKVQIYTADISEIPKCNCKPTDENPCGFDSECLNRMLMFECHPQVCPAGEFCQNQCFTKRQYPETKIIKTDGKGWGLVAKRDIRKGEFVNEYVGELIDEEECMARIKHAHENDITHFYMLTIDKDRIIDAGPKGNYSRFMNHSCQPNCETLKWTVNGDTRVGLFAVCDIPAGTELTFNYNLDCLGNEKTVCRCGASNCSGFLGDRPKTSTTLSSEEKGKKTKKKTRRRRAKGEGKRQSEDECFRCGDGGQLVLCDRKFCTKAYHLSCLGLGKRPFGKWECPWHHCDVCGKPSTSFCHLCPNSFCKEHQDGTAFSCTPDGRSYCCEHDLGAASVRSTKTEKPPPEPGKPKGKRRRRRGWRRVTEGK
# [9] = target: Phospholipase A2 (Homo sapiens, UniProt P04054); type: functional;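 also: confirmatory dose-response counterscreen on phospholipase A2, testing hits that came from an ultra-high-throughput screen for ATG4B inhibitors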
# [10] = target: Prothrombin (Bos taurus, UniProt P00735); assay: thrombin inhibition, dose response, biochemical, fluorescence polarization, uHTS hits (AID 602369); type: functional
# [11] = target: Intestinal-type alkaline phosphatase (Mus musculus, UniProt P24822); assay: PubChem AID 488785; type: functional
# [12] = target: T3, SUMO-activating enzyme; assay: inhibitors of in vitro SUMOylation cascade, primary screen, biochemical, HTRF, uHTS (AID 2006); type: protein-complex assay
# [13] = target: 72 kDa type IV collagenase (Homo sapiens, UniProt P08253); assay: Dose Response validation of uHTS RPN11 inhibitor hits using a MMP-2 Fluorescence assay.; type: functional
# [14] = target: DNA (cytosine-5)-methyltransferase 1 (Homo sapiens, UniProt P26358); assay: DNMT1 methyltransferase inhibitors, confirmation, biochemical, fluorescent molecular beacon (AID 602386); type: functional
# [15] = target: DNA dC->dU-editing enzyme APOBEC-3A (Homo sapiens, UniProt P31941); assay: APOBEC3A DNA deaminase inhibitors, dose response, biochemical (AID 504722); type: functional
# Chain of DNA dC->dU-editing enzyme APOBEC-3A (P31941 whole entry): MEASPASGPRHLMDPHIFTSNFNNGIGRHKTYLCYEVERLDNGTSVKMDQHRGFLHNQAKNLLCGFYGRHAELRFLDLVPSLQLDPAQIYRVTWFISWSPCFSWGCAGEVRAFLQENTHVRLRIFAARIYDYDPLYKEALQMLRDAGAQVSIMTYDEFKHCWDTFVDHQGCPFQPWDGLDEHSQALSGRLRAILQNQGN
# [16] = target: DNA dC->dU-editing enzyme APOBEC-3G (Homo sapiens, UniProt Q9HC16); assay: Dose Response confirmation of small molecule APOBEC3G DNA Deaminase Inhibitors via a fluorescence-based single-stranded DNA deaminase assay. [Related pubchem assays (depositor defined):AID493012, AID493028]; type: functional
# Chain of DNA dC->dU-editing enzyme APOBEC-3G (Q9HC16 whole entry): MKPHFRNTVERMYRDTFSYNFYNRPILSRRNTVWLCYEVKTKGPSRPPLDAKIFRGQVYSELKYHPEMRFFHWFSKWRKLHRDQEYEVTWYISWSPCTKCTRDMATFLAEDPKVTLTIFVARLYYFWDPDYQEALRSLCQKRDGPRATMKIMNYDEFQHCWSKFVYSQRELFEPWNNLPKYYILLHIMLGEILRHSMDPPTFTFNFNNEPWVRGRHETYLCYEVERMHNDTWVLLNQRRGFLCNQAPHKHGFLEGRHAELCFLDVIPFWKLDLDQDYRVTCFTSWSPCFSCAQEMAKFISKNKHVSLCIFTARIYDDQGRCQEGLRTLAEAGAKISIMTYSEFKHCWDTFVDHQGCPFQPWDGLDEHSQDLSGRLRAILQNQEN
# [17] = target: Voltage-dependent T-type calcium channel subunit alpha-1H (Homo sapiens, UniProt O95180); type: functional;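 also: channel activity triggered by adding a high calcium stimulation buffer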
# [18] = target: T6, Zinc finger protein mex-5 (Caenorhabditis elegans, UniProt Q9XUB2); assay: MEX-5/TCR-2 RNA interaction inhibitors, dose response, biochemical, C. elegans, fluorescence polarization (AID 1960)
# T6 sequence (Q9XUB2 whole entry): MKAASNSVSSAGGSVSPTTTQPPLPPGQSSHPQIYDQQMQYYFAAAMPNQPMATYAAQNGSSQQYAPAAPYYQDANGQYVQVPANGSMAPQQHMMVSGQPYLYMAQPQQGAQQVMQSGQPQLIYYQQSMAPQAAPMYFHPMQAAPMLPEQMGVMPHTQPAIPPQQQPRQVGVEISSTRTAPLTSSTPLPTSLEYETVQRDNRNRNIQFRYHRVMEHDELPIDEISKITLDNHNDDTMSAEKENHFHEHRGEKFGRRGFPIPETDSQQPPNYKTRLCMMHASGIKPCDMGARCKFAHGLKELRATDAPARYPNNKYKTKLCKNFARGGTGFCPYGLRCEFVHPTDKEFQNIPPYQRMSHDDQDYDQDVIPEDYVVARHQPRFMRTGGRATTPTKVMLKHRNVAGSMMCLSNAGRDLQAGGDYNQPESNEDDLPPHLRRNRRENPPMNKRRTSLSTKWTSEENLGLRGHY
# [19] = target: Beta-lactamase (Salmonella choleraesuis (strain SC-B67), UniProt Q5J463)
# [20] = target: ORF 73 (Human herpesvirus 8, UniProt O40947); assay: inhibitors of C-LANA binding to LBS DNA, dose response, biochemical, fluorescence polarization, cherry-picked samples (AID 504725); parameters: species or system Human gammaherpesvirus 8;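 also: fluorescence polarization of a labeled DNA duplex reporting LANA DNA binding; potency is for inhibitors that block LANA binding to the DNA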
# Chain of ORF 73 (O40947 whole entry): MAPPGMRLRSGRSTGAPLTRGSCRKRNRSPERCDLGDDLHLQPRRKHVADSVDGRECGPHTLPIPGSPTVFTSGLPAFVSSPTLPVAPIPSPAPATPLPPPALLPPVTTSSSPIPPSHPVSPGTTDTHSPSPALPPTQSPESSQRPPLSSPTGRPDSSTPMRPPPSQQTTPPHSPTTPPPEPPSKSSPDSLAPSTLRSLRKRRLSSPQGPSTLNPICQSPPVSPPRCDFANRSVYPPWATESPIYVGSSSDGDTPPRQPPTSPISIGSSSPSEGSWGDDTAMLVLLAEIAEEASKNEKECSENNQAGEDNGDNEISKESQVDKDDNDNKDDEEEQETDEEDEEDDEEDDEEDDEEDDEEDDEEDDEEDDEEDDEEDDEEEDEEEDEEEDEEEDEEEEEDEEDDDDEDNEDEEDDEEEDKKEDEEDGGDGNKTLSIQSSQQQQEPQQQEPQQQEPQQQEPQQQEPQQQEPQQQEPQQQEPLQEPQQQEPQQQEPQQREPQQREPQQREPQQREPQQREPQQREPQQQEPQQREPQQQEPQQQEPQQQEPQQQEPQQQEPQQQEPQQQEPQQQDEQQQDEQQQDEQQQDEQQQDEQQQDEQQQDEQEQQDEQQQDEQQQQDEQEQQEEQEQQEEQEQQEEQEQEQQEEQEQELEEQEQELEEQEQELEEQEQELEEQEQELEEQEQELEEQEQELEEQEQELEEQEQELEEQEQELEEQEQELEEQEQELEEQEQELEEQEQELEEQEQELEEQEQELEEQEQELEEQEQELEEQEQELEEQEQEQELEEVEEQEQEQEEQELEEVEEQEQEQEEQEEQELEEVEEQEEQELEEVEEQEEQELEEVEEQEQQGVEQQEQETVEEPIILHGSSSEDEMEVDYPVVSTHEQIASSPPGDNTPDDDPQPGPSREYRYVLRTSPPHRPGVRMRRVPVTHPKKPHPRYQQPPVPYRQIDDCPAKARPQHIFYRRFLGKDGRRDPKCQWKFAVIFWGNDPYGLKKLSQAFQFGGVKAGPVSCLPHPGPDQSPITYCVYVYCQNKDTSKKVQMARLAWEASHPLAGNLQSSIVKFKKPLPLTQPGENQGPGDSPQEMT
# [21] = target: Beta-lactamase (Pseudomonas aeruginosa, UniProt Q79MP6);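 also: biochemical dose-response test of metallo-beta-lactamase enzyme inhibition, read out by epi-absorbance; purified recombinant IMP-1 metallo-beta-lactamase with nitrocefin as substrate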
# Chain of Beta-lactamase (Pseudomonas aeruginosa, UniProt Q79MP6) (Q79MP6 whole entry, the tested form may be a part): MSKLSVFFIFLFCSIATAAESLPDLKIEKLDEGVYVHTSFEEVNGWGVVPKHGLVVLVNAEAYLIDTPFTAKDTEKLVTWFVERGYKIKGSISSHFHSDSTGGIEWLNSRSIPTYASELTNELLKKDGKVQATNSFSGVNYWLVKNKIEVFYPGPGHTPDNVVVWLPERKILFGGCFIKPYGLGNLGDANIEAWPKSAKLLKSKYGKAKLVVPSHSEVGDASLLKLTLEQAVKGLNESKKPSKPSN
# [22] = target: T7, RNA-binding protein pos-1 (Caenorhabditis elegans, UniProt G5EF15); assay: inhibitors of POS-1/mex-3 RNA binding, dose response, biochemical, fluorescence polarization (AID 1964);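 also: purified POS-1 fused to maltose binding protein made in E. coli; potency of compounds blocking POS-1 binding to fluorescent RNA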
# T7 sequence (G5EF15 whole entry): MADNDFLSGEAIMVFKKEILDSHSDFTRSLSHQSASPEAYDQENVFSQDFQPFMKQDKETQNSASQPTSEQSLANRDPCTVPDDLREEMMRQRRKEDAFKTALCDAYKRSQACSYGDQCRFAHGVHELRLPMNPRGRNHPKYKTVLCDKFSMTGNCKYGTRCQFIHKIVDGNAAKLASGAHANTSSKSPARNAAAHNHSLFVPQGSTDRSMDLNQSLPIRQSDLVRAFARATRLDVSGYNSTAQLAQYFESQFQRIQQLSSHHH
# [23] = target: Heat shock protein HSP 90-alpha (Homo sapiens, UniProt P07900); type: functional, organism-based
# [24] = target: T8, Heat shock factor protein 1 (Mus musculus, UniProt P38532); assay: inhibition of MG132-induced HSE-luciferase signal, confirmation, cell-based, NIH3T3, luminescence, dose retest (AID 2382); type: functional;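 also: NIH3T3 fibroblasts with HSF1-driven luciferase reporter stressed by proteasome inhibitor MG132; luminescence from HSF1-driven luciferase expression after 8 hours of MG132 stress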
# T8 sequence (P38532 whole entry): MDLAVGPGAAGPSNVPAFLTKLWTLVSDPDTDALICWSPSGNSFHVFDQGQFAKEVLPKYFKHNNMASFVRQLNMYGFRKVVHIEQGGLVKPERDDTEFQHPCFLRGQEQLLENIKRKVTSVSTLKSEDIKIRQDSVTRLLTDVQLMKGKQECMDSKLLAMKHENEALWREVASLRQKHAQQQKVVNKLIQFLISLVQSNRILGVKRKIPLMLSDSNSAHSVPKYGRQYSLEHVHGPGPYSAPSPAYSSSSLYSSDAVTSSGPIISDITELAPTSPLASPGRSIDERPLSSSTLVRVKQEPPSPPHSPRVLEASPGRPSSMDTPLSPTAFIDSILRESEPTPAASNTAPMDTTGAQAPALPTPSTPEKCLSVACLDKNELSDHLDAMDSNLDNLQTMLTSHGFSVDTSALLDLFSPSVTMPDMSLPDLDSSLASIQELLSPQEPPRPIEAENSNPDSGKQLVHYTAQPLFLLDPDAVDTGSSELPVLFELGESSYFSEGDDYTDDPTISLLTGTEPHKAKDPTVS
# [25] = target: Genome polyprotein (dengue virus type 2, UniProt P29990); assay: Dengue-2 NS5 methyltransferase inhibitors, primary screen, biochemical, confirmation dose response (AID 588689); type: functional
# Chain of Intestinal-type alkaline phosphatase (Homo sapiens, UniProt P09923) (P09923 whole entry): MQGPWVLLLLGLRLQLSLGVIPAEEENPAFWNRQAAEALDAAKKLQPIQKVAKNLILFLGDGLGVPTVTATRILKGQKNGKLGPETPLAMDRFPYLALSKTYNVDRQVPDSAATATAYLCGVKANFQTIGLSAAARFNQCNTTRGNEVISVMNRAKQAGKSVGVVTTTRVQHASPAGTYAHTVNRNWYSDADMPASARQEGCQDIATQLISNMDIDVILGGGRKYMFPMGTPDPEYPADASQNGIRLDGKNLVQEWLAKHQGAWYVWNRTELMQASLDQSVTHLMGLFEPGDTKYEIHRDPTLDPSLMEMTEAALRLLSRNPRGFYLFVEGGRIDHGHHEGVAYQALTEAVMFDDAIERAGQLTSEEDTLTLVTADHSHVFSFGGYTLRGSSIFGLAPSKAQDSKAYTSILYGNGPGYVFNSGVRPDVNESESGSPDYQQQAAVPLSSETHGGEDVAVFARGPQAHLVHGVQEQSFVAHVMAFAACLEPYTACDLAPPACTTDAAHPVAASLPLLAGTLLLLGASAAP
smiles,measurement,setting,value
COc1cc(NS(=O)(=O)c2ccc(NC(=S)NC(=O)/C=C/c3ccco3)cc2)ncn1,IC50,[1],> 100 µM (inactive)
same,IC50,[2],30.4 µM (inactive)
same,IC50,[3],6 µM (active)
same,IC50,[4],12.9 µM (active)
same,AC50,[5],> 52 µM (inactive)
same,IC50,[6],2.41 µM (active)
same,IC50,[7],45.9 µM (active)
same,AC50,[8],13.2 µM (active)
same,IC50,[9],> 80 µM (inactive)
same,IC50,[10],20.5 µM (active)
same,IC50,[11],18.4 µM (active)
same,IC50,[12],26.1 µM (active)
same,IC50,[13],2.15 µM (active)
same,IC50,[14],2.92 µM (active)
Sc1nnc(COc2ccccc2)n1/N=C/c1ccccn1,IC50,[15],> 100 µM (inactive)
same,IC50,[16],3.99 µM (active)
Cc1n[nH]c(C)c1N1C(=O)c2cccc3c(N4CCCCCC4)ccc(c23)C1=O,EC50,[17],1.04 µM (active)
same,EC50,[18],1.72 µM (inconclusive)
same,IC50,[19],27.8 µM (inactive)
same,AC50,[20],> 350 µM (inactive)
same,IC50,[21],> 59.6 µM (inactive)
same,AC50,[5],32.5 µM (active)
same,EC50,[22],6.94 µM (inconclusive)
COc1ccc(OC)c(N2C(=O)NC(=O)/C(=C\c3ccc([N+](=O)[O-])s3)C2=O)c1,AC50,[23],4.17 µM (active)
same,AC50,[20],90.7 µM (active)
same,EC50,[24],> 195 µM (not active)
same,IC50,[25],39.9 µM (active)
